Measured values: US10688196B2, “Cross-linking agents of collagen fibers for the use in the treatment of corneal ectasia” (SOOFT ITALIA SPA, priority 2015, dated 2020)

What was measured:
[1] = riboflavin solutions, 40 W fluorescent light, 1350 foot-candles; cited from earlier work
[2] = compared with solubility in water; cited from earlier work
bovine cornea = conditions: compared to riboflavin in deionized water; cited from earlier work
[3] = Riboflavin titer determination before and after sterilization (stability); assay type: physicochemical; conditions: 1 atm, 121° C.
Text: Riboflavin Titer Determination

cornea = conditions: UVA irradiation at 370 nm, immediately after irradiation; cited from earlier work
[4] = ROS (superoxide anion) production on 366 nm irradiation, measured by reduction of Nitro Blue Tetrazolium to Formazan Blue (absorbance at 560 nm); conditions: at different light intensities
Procedure: The rational of the method is based on the fact that some organic molecules, both natural and synthetic, when irradiated with a particular wavelength, activate and, by interacting with oxygen, produce superoxide anion. […] As the amount of produced superoxide anion correlates with the amount of reduced NBT, from the absorption rate of reduced NBT is obtained the amount of ROS, thereby the ROS production can be expressed as function of irradiation time (minutes).
The ROS measurement is performed by a photoactivation chamber which enables to irradiate in controlled conditions the solutions of photoactivator and detector. The controlled parameters are emission specificity, uniform radiance, irradiation intensity, irradiation time.
Riboflavin-5′-(dihydrogen phosphate), monosodium salt, control sample, NBT control sample and reference sample were irradiated at different incident light intensity (99 μW/cm^2, 223 μW/cm^2, 633 μW/cm^2) (366 nm wavelength) in the photoactivation chamber, and absorbance at 560 nm is recorded. During the irradiation the temperature of the solutions was measured. […] Therefore reasonably the effect of temperature is marginal on these absorbance measures.
The two samples were irradiated in the photoactivation chamber by 99 μW/cm^2 incident light, and absorbance at 560 nm was recorded according to the above described procedure. […]

| Molecule | stabilizing effect on riboflavin (photodegradation) [1] [%] | effect on riboflavin aqueous solubility [2] | effect on riboflavin permeability (bovine cornea) (bovine cornea) | also measured |
| --- | --- | --- | --- | --- |
| O=C([O-])CN(CCN(CC(=O)[O-])CC(=O)O)CC(=O)O.[Na+].[Na+] [disodium ethylenediamine (EDTA)] | 96.2 |  |  |  |
| OC[C@H]1O[C@@H]2O[C@H]3[C@H](O)[C@@H](O)[C@@H](O[C@H]4[C@H](O)[C@@H](O)[C@@H](O[C@H]5[C@H](O)[C@@H](O)[C@@H](O[C@H]6[C@H](O)[C@@H](O)[C@@H](O[C@H]7[C@H](O)[C@@H](O)[C@@H](O[C@H]1[C@H](O)[C@H]2O)O[C@@H]7CO)O[C@@H]6CO)O[C@@H]5CO)O[C@@H]4CO)O[C@@H]3CO [α-cyclodextrin] |  | increased riboflavin solubility | no significant improvement in drug permeation |  |
| ribonucleic acid | 59.3 |  |  |  |
| O=S([O-])([O-])=S.[Na+].[Na+] [sodium thiosulfate] | 72.9 |  |  |  |
| COC(=O)c1ccc(O)cc1 [methylparaben] | 86.4 |  |  |  |
| N[C@@H](CCC(=O)N[C@@H](CS)C(=O)NCC(=O)O)C(=O)O [reduced glutathione] | 26.2 |  |  |  |
| OC[C@H]1O[C@@H]2O[C@H]3[C@H](O)[C@@H](O)[C@@H](O[C@H]4[C@H](O)[C@@H](O)[C@@H](O[C@H]5[C@H](O)[C@@H](O)[C@@H](O[C@H]6[C@H](O)[C@@H](O)[C@@H](O[C@H]7[C@H](O)[C@@H](O)[C@@H](O[C@H]8[C@H](O)[C@@H](O)[C@@H](O[C@H]9[C@H](O)[C@@H](O)[C@@H](O[C@H]1[C@H](O)[C@H]2O)O[C@@H]9CO)O[C@@H]8CO)O[C@@H]7CO)O[C@@H]6CO)O[C@@H]5CO)O[C@@H]4CO)O[C@@H]3CO [γ-cyclodextrin] |  | failed to enhance drug solubility at any significant level | no significant improvement in drug permeation |  |
| NC(N)=S [thiourea] | 88.2 |  |  |  |
| Cc1cc2nc3c(=O)[nH]c(=O)nc-3n(C[C@H](O)[C@H](O)[C@H](O)COP(=O)([O-])O)c2cc1C.[Na+] [Riboflavin phosphate, Riboflavin-5-Phosphate Sodium] |  |  |  | Riboflavin % by weight ([3]; in presence of EDTA H4 (0.1% p/p), Tris (0.05% p/p) and phosphate buffer, sterilization 20 min): 67.0 % by weight; Riboflavin % by weight ([3]; in presence of EDTA H4 (0.1% p/p), Tris (0.05% p/p) and phosphate buffer, sterilization 30 min): 60.0 % by weight; Riboflavin % by weight ([3]; in presence of EDTA H4 (0.1% p/p), Tris (0.05% p/p) and phosphate buffer, sterilization 45 min): 50.0 % by weight; Riboflavin % by weight ([3]; in presence of borate buffer, sterilization 20 min): 68.0 % by weight; Riboflavin % by weight ([3]; in presence of distilled water, sterilization 20 min): 95.0 % by weight; Riboflavin % by weight ([3]; in presence of distilled water, sterilization 30 min): 92.0 % by weight; Riboflavin % by weight ([3]; in presence of distilled water, sterilization 45 min): 90.0 % by weight; Riboflavin % by weight ([3]; in presence of phosphate buffer, sterilization 20 min): 65.0 % by weight; Riboflavin % by weight ([3]; in presence of phosphate buffer, sterilization 30 min): 40.0 % by weight; Riboflavin % by weight ([3]; in presence of phosphate buffer, sterilization 45 min): 39.0 % by weight; increase of the biomechanical rigidity of the cornea (cornea): about 300%; change of the absorption on irradiation [4]: no appreciable change of the absorption |
| 2-Hydroxypropyl-β-cyclodextrin |  | failed to enhance drug solubility at any significant level | no significant improvement in drug permeation |  |
| CSCCC(N)C(=O)O (racemic) [DL-methionine] | 76.3 |  |  |  |
| OC[C@H]1O[C@@H]2O[C@H]3[C@H](O)[C@@H](O)[C@@H](O[C@H]4[C@H](O)[C@@H](O)[C@@H](O[C@H]5[C@H](O)[C@@H](O)[C@@H](O[C@H]6[C@H](O)[C@@H](O)[C@@H](O[C@H]7[C@H](O)[C@@H](O)[C@@H](O[C@H]8[C@H](O)[C@@H](O)[C@@H](O[C@H]1[C@H](O)[C@H]2O)O[C@@H]8CO)O[C@@H]7CO)O[C@@H]6CO)O[C@@H]5CO)O[C@@H]4CO)O[C@@H]3CO [β-cyclodextrin] |  | increased riboflavin solubility | enhances riboflavin permeability |  |
